Experimental findings from publication PMC8305974, “Novel Hybrid Compounds Containing Benzofuroxan and Aminothiazole Scaffolds: Synthesis and Evaluation of Their Anticancer Activity” (International Journal of Molecular Sciences, 2021) are described below.

The structures appear in SMILES notation. Like-named read-outs stand apart in the source and are kept apart here.

One data set in a line: in vitro. The following applies: human.
Data set [1] concerns M-HeLa. Briefly: Cytotoxicity assay (Cytell Cell Imaging, Cell Viability Bio App). To be noted: read-out: Cytotoxic effects (IC50) M-HeLa; cancer cell line M-HeLa; tested at 1–100 μM; mean ± SD, three repeats.
Data set [2] relates to HuTu 80. Described as above. To be noted: read-out: Cytotoxic effects (IC50) HuTu 80; cancer cell line HuTu 80; tested at 1–100 μM; mean ± SD, three repeats.
The subject of data set [3] is PANC-1. The description is as above. The following applies: read-out: Cytotoxic effects (IC50) PANC-1; cancer cell line PANC-1; tested at 1–100 μM; mean ± SD, three repeats.
The subject of data set [4] is M-HeLa. To be noted: for IC50: human.
The test system of data set [5] is HuTu 80. The following applies: human.
Data set [6] relates to PANC-1. To be noted: human.
The test system of another data set is M-HeLa cells. Briefly: Cell apoptosis analysis by flow cytometry (annexin V-FITC / propidium iodide). In kind it is cell-based, human. The following applies: 24 h. Here is the method:
Cell Culture. M-HeLa cells at 1 × 10^6 cells/well in a final volume of 2 mL were seeded into 6-well plates. After 24 h of incubation, various concentrations of Compounds 2f and 3f were added to wells.
Cell Apoptosis Analysis. The cells were harvested at 2000 rpm for 5 min and, then, washed twice with ice-cold PBS, followed by resuspension in binding buffer. Next, the samples were incubated with 5 μL of annexin V-FITC and 5 μL of propidium iodide for 15 min at room temperature in the dark. Finally, the cells were analyzed by flow cytometry (Guava easy Cyte, MERCK, Kenilworth Union County, NJ, USA). The experiments were repeated three times.
For orientation: Flow cytometry measures light scatter and fluorescence of single cells or particles in a stream.

In another data set the test system is M-HeLa cell lines. The experiment in a line: Cell cycle analysis by flow cytometry (propidium iodide). In kind it is cell-based, human. The following applies: 24 h, control 68.1. How it is done:
Cell cycle analysis by quantification of DNA content is a reliable method to investigate which phase cell cycle has been arrested, wherein propidium iodide dye is used which binds in proportion to the amount of DNA present in the cell. […] The results reveal that 3f caused an increase in % of G1 arrest. Compound 3f was on 81.4% and 83.8% at 50 and 100 µM, respectively, which is more than control cells (68.1%) (Figure 9).
The DNA content and cell-cycle distribution after genistein treatment were estimated by flow cytometry. Cell seeding, drug treatment and ethanol fixation were similar to cell proliferation assay. After washing with PBS, genistein and daidzein-treated and -fixed cells were suspended in 150 μL of PBS, then 0.5 mL phosphate-citrate buffer (0.05 M, pH 4.0) was added and the suspension was incubated at room temperature for 5 min to facilitate the extraction of low-molecular-weight DNA. Following centrifugation, the cells were resuspended in 150 μL DNA staining solution (20 μg/mL propidium iodide, 200 μg/mL […], and 0.1% Triton X-100) and incubated in the CO2 incubator (37 °C for 30 min). Cell cycle distribution was determined by fluorescence-activated cell sorting analysis of propidium iodide-stained ethanol-fixed cells using a Guava EasyCyte (Guava easy Cyte, MERCK, Kenilworth Union County, NJ, USA).

The mark [7] stands for this setting: Chang Liver cells (normal liver cell line).

On to `Cc1cnc(Nc2ccccc2)s1` [Compound 2e], for which the IC50 – broadly, the concentration needed to halve the response being measured – is greater than 100 µM in the data set “in vitro” (setting [7]), 92 ± 8.2 µM in the data set with M-HeLa [1], greater than 100 µM with HuTu 80 [2] and greater than 100 µM in the data set on PANC-1 [3].
For the molecule `O=c1[nH]cc(F)c(=O)[nH]1` [5-Fluorouracil, reference compound], the IC50 came to 72.4 ± 6.5 µM in “in vitro” (setting [7]), 62 ± 4.9 µM in the data set on M-HeLa [1], 65.2 ± 5.5 µM in the data set with HuTu 80 [2] and 68.3 ± 5.7 µM in the data set with PANC-1 [3].
With `O=[N+]([O-])c1cc([N+](=O)[O-])c2no[n+]([O-])c2c1Nc1nccs1` [Compound 3a, 4,6-dinitro-7-(thiazol-2-ylamino)benzo[c][1,2,5]oxadiazole 1-oxide], the “Cytotoxicity in words, M-HeLa” value in the data set on M-HeLa [4] is “moderate cytotoxicity”. Also, the IC50 in the data set on M-HeLa [4] is 61 ± 5.4 µM; with HuTu 80 [5], greater than 100 µM; in the data set on PANC-1 [6] it was greater than 100 µM; in “in vitro”, greater than 100 µM. The “Toxicity in words, normal cells (Chang Liver)” value (“Toxicity in words, normal cells” for short) with Chang Liver is given as “not toxic”.
`CCOC(=O)c1csc(N)n1` [Compound 2c]: the IC50 is 95.4 ± 8.7 µM in the data set “in vitro” (setting [7]), 63.3 ± 5.7 µM with M-HeLa [1], greater than 100 µM with HuTu 80 [2] and greater than 100 µM in the data set with PANC-1 [3].
On to `Cc1cnc(Nc2c([N+](=O)[O-])cc([N+](=O)[O-])c3no[n+]([O-])c23)s1` [Compound 3b, 7-(5-methylthiazol-2-ylamino)-4,6-dinitrobenzo[c][1,2,5]oxadiazole 1-oxide], for which the IC50 is 70 ± 6.2 µM with M-HeLa [4], greater than 100 µM in the data set with HuTu 80 [5], greater than 100 µM with PANC-1 [6] and greater than 100 µM in the data set “in vitro”.
Consider `Nc1nccs1` [Compound 2a], for which the IC50 with M-HeLa [4] is 91 ± 8.3 µM; in the data set on HuTu 80 [5], greater than 100 µM; in the data set with PANC-1 [6], greater than 100 µM; in “in vitro” it was greater than 100 µM.
Turning to `COc1ccc(Nc2nccs2)cc1` [Compound 2f], the IC50 in the data set “in vitro” (setting [7]) is greater than 100 µM; with M-HeLa [1], 93.8 ± 8.4 µM; with HuTu 80 [2], greater than 100 µM; in the data set on PANC-1 [3], greater than 100 µM.
`O=[N+]([O-])c1cc([N+](=O)[O-])c2no[n+]([O-])c2c1N(c1ccccc1)c1nccs1` [Compound 3d, 4,6-dinitro-7-(phenyl(thiazol-2-yl)amino)benzo[c][1,2,5]oxadiazole 1-oxide]: in the data set with M-HeLa [4], the “Cytotoxicity in words, M-HeLa” value is “moderate cytotoxicity”. For the same molecule, the half-maximal inhibitory concentration (IC50) was 61 ± 5.6 µM in the data set with M-HeLa [4], greater than 100 µM with HuTu 80 [5], greater than 100 µM with PANC-1 [6] and 86.1 ± 7.8 µM in the data set “in vitro”. For the same molecule, the “Toxicity in words, normal cells” value in the data set on Chang Liver is reported as “not toxic”.
`CCOC(=O)c1cnc(Nc2c([N+](=O)[O-])cc([N+](=O)[O-])c3no[n+]([O-])c23)s1` [Compound 3c, 7-(5-(ethoxycarbonyl)thiazol-2-ylamino)-4,6-dinitrobenzo[c][1,2,5]oxadiazole 1-oxide]: the concentration for half-maximal inhibition (IC50) with M-HeLa [4] is 95.8 ± 8.4 µM; in the data set with HuTu 80 [5], greater than 100 µM; in the data set with PANC-1 [6], greater than 100 µM; in the data set “in vitro”, 100 ± 9.4 µM.
In the case of `Cc1cnc(N(c2ccccc2)c2c([N+](=O)[O-])cc([N+](=O)[O-])c3no[n+]([O-])c23)s1` [Compound 3e, 7-((5-methylthiazol-2-yl)(phenyl)amino)-4,6-dinitrobenzo[c][1,2,5]oxadiazole 1-oxide], the IC50 with M-HeLa [4] is 79 ± 6.3 µM; in the data set with HuTu 80 [5], greater than 100 µM; in the data set with PANC-1 [6] it was greater than 100 µM; in “in vitro” it was 85.8 ± 7.4 µM.
Consider `Cc1cnc(N)s1` [Compound 2b], for which the IC50 was greater than 100 µM in the data set “in vitro” (setting [7]), 92 ± 7.9 µM in the data set with M-HeLa [1], greater than 100 µM in the data set on HuTu 80 [2] and greater than 100 µM in the data set with PANC-1 [3].
`COc1ccc(N(c2nccs2)c2c([N+](=O)[O-])cc([N+](=O)[O-])c3no[n+]([O-])c23)cc1` [Compound 3f, 7-((4-methoxyphenyl)(thiazol-2-yl)amino)-4,6-dinitrobenzo[c][1,2,5]oxadiazole 1-oxide]: the “Early apoptotic cells (Ea)” value in the data set with M-HeLa cells (50 µM) is 10.73%; in the data set with M-HeLa cells (100 µM), 17.29%. Also, the entries for the “Cells in G1 phase” value in the data set with M-HeLa cell lines (50 µM) and in the data set with M-HeLa cell lines (100 µM) were 81.4% and 83.8%, respectively. Also, the “Cytotoxicity in words, M-HeLa” value with M-HeLa [4] is listed as “moderate cytotoxicity”. Moreover, the half-inhibitory concentration (IC50) was 56.6 ± 4.7 µM with M-HeLa [4], greater than 100 µM in the data set on HuTu 80 [5], greater than 100 µM in the data set with PANC-1 [6] and greater than 100 µM in the data set “in vitro”. In the data set with Chang Liver, the “Toxicity in words, normal cells” value is “not toxic”.
